Measured values taken from patent publication EP4772530A1, “PEPTIDE TARGETING SOMATOSTATIN RECEPTOR, DRUG CONJUGATE AND USE THEREOF” (Mainline Biosciences (Shanghai) Co., Ltd., priority 2023, dated 2025).

Test system: HL-60
Test: Cell killing in HL-60 by CCK-8
Type: cell-based
Conditions: HL-60, 48 h
Experimental: • a) Cell line: HL-60 • b) Procedure • (1) Normally cultured HL-60 cells in the logarithmic growth phase were centrifuged at 800 rpm for 5 min to discard the supernatant. Approximately 3 mL of normal medium was added to resuspend the cell pellet by gently pipetting up and down. The cells were then counted using a cell counter and inoculated onto a 96-well plate. • (2) Sample solutions with different concentration gradients were prepared. Approximately 10 µL of each solution was added to the 96-well plate, with 3 to 6 replicate wells for each concentration, and incubated in a 5% CO2 incubator at 37°C for 48 h. • (3) CCK-8 was equilibrated to room temperature before use, and 10 µL of CCK-8 solution was added to each well. • (4) The plate was incubated in the incubator for 0.5-4 h in the dark, with the incubation time depending on experimental conditions such as cell type and density. • (5) The absorbance was measured at 450 nm using a microplate reader. • c) Data analysis Cell viability = [(As−Ab)/(Ac−Ab)] × 100% [formula] Inhibition% = [(Ac−As)/(Ac−Ab)] × 100% [formula] • As: absorbance of sample well (containing cells + medium + CCK-8 solution + drug solution); • Ac: absorbance of control well (containing cells + medium + CCK-8 solution); • Ab: absorbance of blank well (containing medium + CCK-8 solution); • The results were processed and analyzed using Excel and Graphpad Prism to obtain the IC50. Table 4: Test Results of Cell Killing in HL-60 for 48 h

## CC[C@H](C)[C@@H]([C@@H](CC(=O)N1CCC[C@H]1[C@H](OC)[C@@H](C)C(=O)N[C@H](C)[C@@H](O)c1ccccc1)OC)N(C)C(=O)[C@@H](NC(=O)[C@H](C(C)C)N(C)C(=O)OCc1ccc(NC(=O)[C@H](CCCNC(N)=O)NC(=O)[C@@H](NC(=O)CCCCCN2C(=O)CC(SC[C@H](NC(C)=O)C(=O)NCCOCCOCC(=O)N[C@@H](CCCNC(=N)N)C(=O)N[C@@H](CCCNC(=N)N)C(=O)N[C@@H](CC(C)C)C(=O)N[C@@H](Cc3ccccc3)C(=O)N[C@H]3CSSC[C@@H](C(=O)N[C@H](C(=O)N[C@@H](Cc4c[nH]c5ccccc45)C(=O)N[C@@H](CCCNC(=N)N)C(=O)N[C@@H](CC(=O)O)C(N)=O)[C@@H](C)O)NC(=O)[C@H]([C@@H](C)O)NC(=O)[C@H](CCCCN)NC(=O)[C@@H](Cc4c[nH]c5ccccc45)NC(=O)[C@H](Cc4ccc(O)cc4)NC3=O)C2=O)C(C)C)cc1)C(C)C (single isomer, unassigned) [Example 10, Ac-Cys(MC-Val-Cit-PABC-MMAE)-AEEA-Arg-Arg-Leu-Phe-[Cys-Tyr-D-Trp-Lys-Thr-Cys]-Thr-Trp-Arg-Asp-NH2]
  Bottom (Inhibition at Lowest Point): -2.25
  IC50: 187 nM
  Top (Inhibition at Highest Point): 90.08
